Results published in publication PMC13327620, “A Deep‐Red‐Absorbing Osmium(II) Complex as a Photosensitizer for Photodynamic Therapy Inducing Immunogenic Cell Death” (Angewandte Chemie (International Ed. in English), 2026).

Test system: calreticulin (ecto‐CRT)
Assay: Immunofluorescence staining of cell surface calreticulin in CT26 cells
Type: cell-based, mouse
Details: CT26, 740 nm light
Experimental: Next, translocation of ER‐resident calreticulin (endo‐CRT) to the cell surface (ecto‐CRT) was measured by confocal microscopy following treatments with Ce6 or Os2 exposed to 740 or 770 nm illumination (Figure 3B,D). In this experiment, cells were fixed but not permeabilized before CRT staining to label only the ecto‐CRT, which is present at the cell surface. […]
concentrations and incub ated for 4 h in the dark. Following the 4 h dark incubation with Os2, wells containing the compound were replaced with the medium containing the selective ROS s caveng ers: 5 mM sodium azide (NaN₃) for singlet oxygen (¹O₂) or 50 mM D-mannitol for hydroxyl radicals (•OH). […] Cell viability was assessed using a 0.2 mg/mL resazurin solution incubated in the dark for 4 h, and fluorescence was measured on a BioTek Cytation 5 Cell Imaging Multimode […]
Singlet oxygen and hydroxyl r adical generation k inetics of Os2 in s olution The generation of singlet oxygen (¹O₂) and hydroxyl radicals (•OH) by Os2 in solution was evalu ated using AB DA (100 μ M) and HPF (5 μ M) as probes, respectively. […] AB DA absorban ce d ecay was monitored to track ¹O₂ gener ation, while HPF fluorescence increas e (λex = 490 nm; λ em = 500-700 nm) was measured to track •OH formation. Control solutions without Os2 wer e measured under the same conditions to account for background signals. […]

SMILES: C=Cc1c(C)c2cc3nc(c(CC(=O)O)c4[nH]c(cc5nc(cc1[nH]2)C(C)=C5CC)c(C)c4C(=O)O)[C@@H](CCC(=O)O)[C@@H]3C [Ce6, chlorin e6]
- ecto‐CRT signal: weaker, but clearly visible
